pIC50: −log10 of the molar value. Read-outs that look alike come from different tables or passages of the source.
Key:
MCF-7-cells = experiment: Concentration dependent cytotoxicity test (IC50) on MCF-7 cells; format: cell-based
Protocol: (§1) Measurement of IC50-values was performed as described by Ott, I. et al., Journal of Medicinal Chemistry, 2005, 48 (2): 622-629. But unlike described in the literature, the experiments with MCF-7-cells were stopped after 96 hours and experiments with MDA-MB-231-cells were stopped after 72 hours.

MDA-MB-231-cells = experiment: Concentration dependent cytotoxicity test (IC50) on MDA-MB-231 cells; format: cell-based
Protocol: as §1

MCF-7 cells [1] = conditions: Ghezzi, A. et al., 2004; cited from earlier work
LNCaP-FGC-cells = experiment: Time dependent test (crystal violet assay) on LNCaP-FGC-cells; format: cell-based
Protocol: The time dependent tests were performed according to Reile, H. et al.: "Computerized Determination of Growth Kinetic Curves and Doubling Times from Cells in Microculture", Analytical Biochemistry, 1990, 187 (2): 262-267; Bernhardt, G. et al.: "Standardized kinetic microassay to quantifiy differential chemosensitivity on the basis of proliferative activity", Journal of Research Clin. Oncol., 1992, 118: 35-43 and Gust, R. et al.: "Development of Cobalt(3,4-diarylsalen) Complexes as Tumor Therapeutics", Journal of Medicinal Chemistry, 2004, 47 (24): 5837-5846.
Determining the cell mass in the crystal violet assay the interpretation of the received values was the following: […]

MDA-MB-231 cells = experiment: Time dependent test (crystal violet assay) on MDA-MB-231 cells; format: cell-based
MCF-7 cells [2] = experiment: Time dependent test (crystal violet assay) on MCF-7 cells; format: cell-based
[3] = tested on: supercoiled plasmid DNA (pSK Bluescript); experiment: DNA cleavage reactions with plasmid DNA on agarose gels; format: biochemical; conditions: for DNA cleaving effect: 1 h at 37 °C
Protocol: General procedure for DNA cleavage reactions with plasmid DNA on agarose gels
100 µl reaction mixture contained 1 µg of supercoiled plasmid DNA (pSK Bluescript) in a tris-HCI buffer at pH 7.0, 1 µl of iron complex solution at the desired concentration (10 mM to 10 µM in DMSO) and in some cases 1 µl of 100 µM dithiothreitol solution resp. 1 µl of 1 mM mercaptoethanol solution. After incubation at 37 °C for the indicated time, 1 µl of loading buffer (0.25 % bromophenol blue, 0,25 % xylene cyanol, 30 % glycerin in H2O) was added to 5 µl reaction mixture (containing 50 ng plasmid DNA) and subsequently loaded onto a 0.8 % agarose gel. One µl of 1 kb-DNA-ladder (NewEnglandBiolabs, #N3232L) was loaded for estimation of size and amount of loaded DNA sample. The electrophoresis was carried out for ~ 45 min at 100 V in TBE buffer at pH 8.3. Gels were stained with etidium bromide (1 µg/ml) and photographed under 254 nm UV light.

HeLa cells = experiment: Time dependent test (crystal violet assay) on HeLa cells; format: cell-based
[4] = Homo sapiens, MCF7, MCF-7, stopped after 96 hours, read-out: IC50
[5] = Homo sapiens, MDA-MB-231, stopped after 72 hours, read-out: IC50
[6] = MCF-7, stopped after 96 hours, read-out: IC50
[7] = MDA-MB-231, stopped after 72 hours, read-out: IC50
[8] = higher concentrations (1-10 µM)
[9] = low concentrations (0,1 µM), in the presence of a reducing agent

O=c1[nH]cc(F)c(=O)[nH]1 [5-fluorouracil]
pIC50 (MCF-7-cells; [4]): 5.32 | pIC50 (MDA-MB-231-cells; [5]): 5.02

N.N.O=C([O-])C1(C(=O)[O-])CCC1.[Pt+2] [Carboplatin]
enrichment in comparison with the outer medium (MCF-7 cells [1]): 1,6 | minimum T/Ccorr- resp. τ-value (LNCaP-FGC-cells; 0.5 µM): 69.5% | minimum T/Ccorr- resp. τ-value (LNCaP-FGC-cells; 1 µM): 55.5% | minimum T/Ccorr- resp. τ-value (LNCaP-FGC-cells; 5 µM): 19.6%

C#CCOC(=O)c1ccccc1OC(C)=O.[C-]#[O+].[C-]#[O+].[C-]#[O+].[C-]#[O+].[C-]#[O+].[C-]#[O+].[Co].[Co] [Co-Ass, Hexacarbonyl[2-propyn-1-ylacetylsalicylat]dicobalt]
pIC50 (MCF-7-cells; [6]): 5.85 | pIC50 (MDA-MB-231-cells; [7]): 5.72

[Fe+2].[O-]c1ccccc1C=Nc1ccccc1N=Cc1ccccc1[O-] [Fe(II)salophen, [N,N'-Bis(salicylidene)phenylene-1,2-diamine]-iron(II)]
minimum T/Ccorr- resp. τ-value (MDA-MB-231 cells; MDA-MB-231, 0.05 µM): 90.0% | minimum T/Ccorr- resp. τ-value (MDA-MB-231 cells; MDA-MB-231, 0.1 µM): 41.9% | minimum T/Ccorr- resp. τ-value (MDA-MB-231 cells; MDA-MB-231, 0.5 µM): -19.1% | minimum T/Ccorr- resp. τ-value (MDA-MB-231 cells; MDA-MB-231, 1 µM): -29.7% | pIC50 (MCF-7-cells; [6]): 6.40 | pIC50 (MDA-MB-231-cells; [7]): 7.00 | minimum T/Ccorr- resp. τ-value (MCF-7 cells [2]; MCF-7, 0.05 µM): 96.5% | minimum T/Ccorr- resp. τ-value (MCF-7 cells [2]; MCF-7, 0.1 µM): 96.7% | minimum T/Ccorr- resp. τ-value (MCF-7 cells [2]; MCF-7, 0.5 µM): 35.7% | minimum T/Ccorr- resp. τ-value (MCF-7 cells [2]; MCF-7, 1 µM): -35.9% | minimum T/Ccorr- resp. τ-value (LNCaP-FGC-cells; 0.1 µM): 47.3% | minimum T/Ccorr- resp. τ-value (LNCaP-FGC-cells; 0.5 µM): 8.9% | minimum T/Ccorr- resp. τ-value (LNCaP-FGC-cells; 1 µM): -25.6% | DNA cleaving effect [3, 8]: DNA double strand breakages | DNA cleaving effect [3, 9]: DNA single strand breakages

[Cl-].[Fe+3].[O-]c1ccccc1C=Nc1ccccc1N=Cc1ccccc1[O-] [Fe(III)salophen chloride, [N,N'-Bis(salicylidene)phenylene-1,2-diamine]-iron(III)-chloride]
minimum T/Ccorr- resp. τ-value (MDA-MB-231 cells; MDA-MB-231, 0.05 µM): 46.0% | minimum T/Ccorr- resp. τ-value (MDA-MB-231 cells; MDA-MB-231, 0.1 µM): 66.2% | minimum T/Ccorr- resp. τ-value (MDA-MB-231 cells; MDA-MB-231, 0.5 µM): -27.8% | minimum T/Ccorr- resp. τ-value (MDA-MB-231 cells; MDA-MB-231, 1 µM): -40.8% | pIC50 (MCF-7-cells; [6]): 6.52 | pIC50 (MDA-MB-231-cells; [7]): 8.00 | minimum T/Ccorr- resp. τ-value (MCF-7 cells [2]; MCF-7, 0.05 µM): 92.6% | minimum T/Ccorr- resp. τ-value (MCF-7 cells [2]; MCF-7, 0.1 µM): 80.4% | effect on cell mass (interpretation of T/Ccorr resp. τ) (MCF-7 cells [2]; MCF-7, 0.5 µM): cytocide effect (T/Ccorr or τ < 0 %) | minimum T/Ccorr- resp. τ-value (MCF-7 cells [2]; MCF-7, 0.5 µM): -23.4% | minimum T/Ccorr- resp. τ-value (MCF-7 cells [2]; MCF-7, 1 µM): -50.8% | minimum T/Ccorr- resp. τ-value (LNCaP-FGC-cells; 0.1 µM): 34.4% | minimum T/Ccorr- resp. τ-value (LNCaP-FGC-cells; 0.5 µM): 3.6% | minimum T/Ccorr- resp. τ-value (LNCaP-FGC-cells; 1 µM): -19.5% | DNA cleaving effect [3, 8]: DNA double strand breakages | DNA cleaving effect [3, 9]: DNA single strand breakages | minimum T/Ccorr- resp. τ-value (HeLa cells; 0.1 µM): 36.2% | minimum T/Ccorr- resp. τ-value (HeLa cells; 0.5 µM): 52.1% | minimum T/Ccorr- resp. τ-value (HeLa cells; 1 µM): -26.0%

CC(=O)[O-].CC(=O)[O-].[Fe+2] [Fe(OAc)2]
pIC50 (MCF-7-cells; [6]): < 4.30 | pIC50 (MDA-MB-231-cells; [7]): < 4.30

[Cl][Fe]([Cl])[Cl] [FeCl3]
pIC50 (MCF-7-cells; [6]): < 4.00 | pIC50 (MDA-MB-231-cells; [7]): < 4.00

N[C@@H](Cc1ccc(N(CCCl)CCCl)cc1)C(=O)O [Melphalan]
pIC50 (MCF-7-cells; Homo sapiens, MCF7, 96 h): 5.24 | pIC50 (MDA-MB-231-cells; Homo sapiens, MDA-MB-231, 72 h): 5.41

O=C1[O][Pt]2([NH][C@@H]3CCCC[C@H]3[NH]2)[O]C1=O [Oxaliplatin]
enrichment in comparison with the outer medium (MCF-7 cells [1]): sixfold | minimum T/Ccorr- resp. τ-value (LNCaP-FGC-cells; 0.5 µM): 12.7% | minimum T/Ccorr- resp. τ-value (LNCaP-FGC-cells; 1 µM): -0.6% | minimum T/Ccorr- resp. τ-value (LNCaP-FGC-cells; 5 µM): -31.0%

N.N.[Cl][Pt][Cl] [cisplatin, reference compound]
enrichment in comparison with the outer medium (MCF-7 cells [1]): fivefold | minimum T/Ccorr- resp. τ-value (MDA-MB-231 cells; MDA-MB-231, 0.5 µM): 79.7% | minimum T/Ccorr- resp. τ-value (MDA-MB-231 cells; MDA-MB-231, 1 µM): 69.0% | pIC50 (MCF-7-cells; [6]): 5.70 | pIC50 (MDA-MB-231-cells; [7]): 5.40 | minimum T/Ccorr- resp. τ-value (MCF-7 cells [2]; MCF-7, 0.5 µM): 55.1% | minimum T/Ccorr- resp. τ-value (MCF-7 cells [2]; MCF-7, 1 µM): 2.2% | minimum T/Ccorr- resp. τ-value (LNCaP-FGC-cells; 0.5 µM): 59.0% | minimum T/Ccorr- resp. τ-value (LNCaP-FGC-cells; 1 µM): 32.7% | minimum T/Ccorr- resp. τ-value (LNCaP-FGC-cells; 5 µM): 6.7% | minimum T/Ccorr- resp. τ-value (HeLa cells; 0.5 µM): 55.9% | minimum T/Ccorr- resp. τ-value (HeLa cells; 1 µM): 33.5%

Oc1ccccc1C=Nc1ccccc1N=Cc1ccccc1O [ligand, N,N'-bis(salicylidene)-phenylene-1,2-diamine, reference compound]
DNA decomposition ([3]; 1 h incubation at 37 °C, with or without additional reducing agents (DTT, 2-ME)): not able to decompose DNA

Nc1ccccc1N [o-phenylenediamine]
pIC50 (MCF-7-cells; [4]): 5.29 | pIC50 (MDA-MB-231-cells; [5]): 4.63
